According to patent US20260069584A1, “METHODS OF TREATING CHRONIC MYELOID LEUKEMIA USING THE TYROSINE KINASE INHIBITOR VODOBATINIB” (Sun Pharma Advanced Research Company Ltd., priority 2022, published 2026):

Experiments:
[1] = tested on: Ph+ CML (CP CML, AP CML and BP CML) and Ph+ ALL; test: Phase 1/2 dose-escalation and expansion study (Part B): disease response, all subjects; type: in vivo
Excerpt: This was a Phase I/2, open-label, single-agent, multicenter, multi-dose, dose-escalation study in subjects with Philadelphia chromosome-positive Ph+ CML (CP CML, AP CML and BP CML) and Ph+ ALL. The primary objectives of this study were to determine the maximum tolerated dose (MTD; or recommended Phase 2 dose [RP2D]) of the compound of Formula I when administered orally and to evaluate its safety.
For patient selection, key inclusion criteria included men or women aged ≥18 years with Eastern Cooperative Oncology Group performance status 0, 1, or 2 with Ph+ CML (CP CML, AP CML, or BP CML) who are resistant and/or intolerant to ≥3 prior TKIs, having adequate organ and immune system function as indicated by Table 09, obtained ≤2 weeks prior to the administration of the compound of Formula I. Subjects with presence of T3151 mutations were not included in the study.
In this study, the dose-escalation cohort started with an accelerated titration study design (ATD) and shifted to a 3±3 design when subjects in the preceding ATD cohort experienced either grade 2 or higher adverse events (AEs) or dose-limiting toxicity (DLT) during Cycle 1 that was not clearly and incontrovertibly related to the underlying disease or concomitant medications. The DLT period consisted of 28 days (Cycle 1). Subjects experiencing DLTs were managed with dose delays and/or discontinuation and continued in the study until disease progression. Decisions to advance to a succeeding dose level occurred after the evaluation of safety and tolerability data for a given dose level.
Accordingly, the eligible subjects were treated in 4-week cycles of once daily self-administration of the compound of Formula I. The administration was after an overnight fast, or after maintaining approximately 2 hours of fasting before and after the dosing in all cycles.
For the cohorts, where the 3±3 design applies, 3 subjects were enrolled initially. If 2 of these subjects experienced a Grade 2 or more toxicity (that was not clearly and incontrovertibly related to the underlying disease or concomitant medications), subsequent cohorts were escalated according to smaller increments. Further, if there were no DLTs in the first 3 subjects, dose escalation to the next higher dose level was allowed to proceed. If 1 of the 3 subjects experienced a DLT, that dose level was expanded to 6 subjects (3 additional subjects were enrolled). If 2 subjects at a given dose level experienced a DLT, the MTD was considered to have been exceeded. The next lower dose level was expanded to 6 subjects, or if 6 subjects had already been enrolled and no more than 1 of the 6 subjects experienced a DLT, then this lower dose level was considered the MTD. Additional subjects were enrolled in dose escalation cohorts for further assessment of safety and efficacy of the compound of Formula 1 at doses that were tolerated (i.e., doses that have <2 DLTs in 6 enrolled subjects or <1 DLT in 3 enrolled subjects). Thus 204 mg was arrived at as MTD. A subject experiencing a DLT was allowed to continue therapy with a reduced dose. Subjects who experienced a DLT and recovered were treated at the next lower dose level until disease progression or other events requiring further dose reduction existed. For cohorts at Dose Level 2 or higher, a further dose reduction (i.e., up to 2 levels lower than their originally assigned dose) was implemented in the case of a further DLT or other non-DLT events requiring a dose reduction, if and when the event leading to dose reduction returned to Grade 1 or lower in severity. The reduced dose was re-escalated to the original or higher dose (i.e., the dose for which safety had been established in the dose escalation cohort) considering subject safety and response to the compound of Formula I. The subject was discontinued from treatment using the compound of Formula I, if dose reduction below 48 mg was required. […]

[2] = Single- and repeat-dose studies in preclinical models, oral route
[3] = tested on: cell lines expressing Ph+ wild-type and mutant forms of BCR-ABL1; test: Growth inhibition of cell lines; type: cell-based

## Cc1ccc(C(=O)NNC(=O)c2c(C)cccc2Cl)cc1C#Cc1cnc2ccccc2c1 [compound of Formula I, N′-(2-chloro-6-methylbenzoyl)-4-methyl-3-[2-(3-quinolyl)ethynyl]-benzohydrazide]
[1]; 18 of the 41 enrolled subjects
  major molecular response: 43.9%
[1]; 19 subjects enrolled at 174 mg
  Major cytogenetic response (MCyR) as best response: 10 subjects
  complete cytogenetic response (CCyR): 9 subjects
  major hematological response (MaHR) as best response: all subjects
  major molecular response as best response: 4 subjects
  partial cytogenetic response (PCyR): 1 subjects
[1]; 23 out of 41 enrolled subjects
  complete cytogenetic response: 56.1%
[1]; 29 out of 41 enrolled subjects, refractory, 2 or more prior TKIs
  complete hematologic response: 70.7%
[1]; AP CML, 48 mg escalated, ~24 months, daily dose of 174 mg
  individual subject outcome: attained MCyR
[1]; CP CML, 12 mg escalated to 174 mg
  individual subject outcome: achieved and maintained CCyR at doses ≥48 mg
[1]; CP CML, 24 mg escalated to 126 mg and 174 mg
  individual subject outcome: maintain CCyR and molecular response between MMR and M2
[1]; CP CML, 126 mg reduced to 90 and 66 mg (thrombocytopenia), re-escalated to 126 mg and 174 mg
  individual subject outcome: tolerated the re-escalated higher dose well
[1]; CP CML, 174 mg reduced to 126 mg (grade 3/4 deranged pancreatic enzymes)
  individual subject outcome: complete cytogenetic response and major molecular response
[1]; CP CML, 204 mg reduced to 174 mg (memory loss)
  individual subject outcome: maintains a complete cytogenetic response and major molecular response
[1]; CP CML, 204 mg reduced to 174 mg (severe thrombocytopenia)
  individual subject outcome: partial cytogenetic response and improved molecular response
[1]; CP CML, 3 prior TKIs incl. Ponatinib, 48 mg escalated to 174 mg
  individual subject outcome: re-attained major molecular and cytogenetic responses
[1]; CP CML, 4 prior TKIs, 48 mg escalated to 90 mg and 174 mg
  individual subject outcome: maintain complete cytogenetic and major molecular responses
[1]; CP CML, 4 prior TKIs, 66 mg escalated to 90 mg
  individual subject outcome: Ph+ cells decreased to minimal cytogenetic response
[1]; CP CML, 6 prior TKIs, 174 mg escalated to 204 mg
  individual subject outcome: improvement in cytogenetic response to minor cytogenetic response
[1]; CP CML, F317L, 66 mg reduced to 48 mg (back pain of grade 2)
  individual subject outcome: maintained CCyR and MMR at 48 mg dose for ˜2.5 years
[1]; CP CML, M351T, 174 mg escalated to 204 mg at cycle 7, cycle 22
  individual subject outcome: maintaining a complete hematological response and stable disease
[1]; donor one CP CML, 2 prior TKIs, 174 mg escalated to 204 mg
  individual subject outcome: maintaining a hematological response
[1]; donor two CP CML, 2 prior TKIs, 174 mg escalated to 204 mg
  individual subject outcome: improvement in cytogenetic response to partial cytogenetic response and improved molecular response
[1]; human, in vivo
  highest efficacious dose: 204 mg
  lowest dose observed to be therapeutically efficacious: 48 mg
[1]; one AP CML subject, Y253F, 48 mg escalated to 204 mg, 39 cycles, PCyR
  best cytogenetic response, Ph+: 10%
[1]; one AP CML subject, Y253F, at 204 mg, 36 cycles
  best molecular response, BCR-ABL: 0.931 % IS
[1]; subject at 66 mg, F317L with ACA
  individual subject outcome: CCyR in cycle 7 and MMR in cycle 4
[1]; subject with F317L, reduced from 66 mg to 48 mg
  duration of maintained disease response at the lower dose: about 2.5 years
[2]; multiple efficacious doses
  adverse events: no specific adverse events
[2]; oral route, daily dosing
  systemic exposure: systemic bioavailability
[2]; plasma, oral
  AUC: 13400 ng·h/mL
[3]
  effect on cell lines: growth inhibition
